Legend:
MDA-MB-453 [1] = test: drug sensitivity score (DSS), single agent (DSS (weighted AUC score)); higher = more sensitive (stronger viability decrease); extreme values may be limits of the assay; conditions: BLU9931 0 nM; 72 h
Method in brief: (§1)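 Compounds from the FIMM Oncology set were predispensed in singlicate at five 10-fold dilutions (10,000-fold range) on 384-well plates. Each well then received 2000 MDA-MB-453 cells in medium with or without an FGFR4 inhibitor (100 nM final) and was kept at 37 °C, 5% CO2. Cellular ATP was read with CellTiterGlo 2.0 after 72 h and normalised per plate to percent viability from control wells. The drug sensitivity score is a weighted area under a four-parameter logistic fit.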

MDA-MB-453 [2] = test: drug sensitivity score (DSS), in combination with BLU9931 (DSS (weighted AUC score)); higher = more sensitive (stronger viability decrease); extreme values may be limits of the assay; conditions: BLU9931 100 nM; 72 h
Method in brief: as §1

| SMILES | drug sensitivity score (MDA-MB-453 [1]) | drug sensitivity score (MDA-MB-453 [2]) |
| --- | --- | --- |
| CN1CCC(CNc2ccc3ncc(-c4cccc(OC(F)(F)F)c4)n3n2)CC1 [SGI-1776] | 6.6 | 5.8 |
| CN(CC(=O)N(Cc1ccc(C2CCCCC2)cc1)c1ccc(C(=O)O)cc1)S(=O)(=O)c1c(F)c(F)c(F)c(F)c1F [SH-4-54] | 5.4 | 7.4 |
| CCc1c2c(nc3ccc(O)cc13)-c1cc3c(c(=O)n1C2)COC(=O)[C@]3(O)CC [SN-38] | 28.8 | 26.2 |
| CC(C)(C)c1cnc(CSc2cnc(NC(=O)C3CCNCC3)s2)o1 [SNS-032] | 18.1 | 19.1 |
| Cc1cc2c(C(=O)NC[C@H](C)c3ccccc3)c(O)c(O)cc2c(O)c1-c1c(C)cc2c(C(=O)NC[C@H](C)c3ccccc3)c(O)c(O)cc2c1O [Sabutoclax] | 12.6 | 12.4 |
| CC[C@@H](C(=O)[C@@H](C)[C@@H](O)[C@H](C)[C@@H]1O[C@@H]([C@@H](CC)C(=O)O)CC[C@@H]1C)[C@H]1O[C@]2(C=C[C@@H](O)[C@]3(CC[C@@](C)([C@H]4CC[C@](O)(CC)[C@H](C)O4)O3)O2)[C@H](C)C[C@@H]1C [Salinomycin] | 6.8 | 3.2 |
| CC(C)n1nc(-c2ccc3oc(N)nc3c2)c2c(N)ncnc21 [Sapanisertib] | 17.1 | 17.9 |
| CNC(=O)CN1CCC(Oc2cc3c(Nc4cccc(Cl)c4F)ncnc3cc2OC)CC1 [Sapitinib] | 2.2 | 4.8 |
| CN1CCN(CCOc2cc(OC3CCOCC3)c3c(Nc4c(Cl)ccc5c4OCO5)ncnc3c2)CC1 [Saracatinib] | 1.5 | 3.6 |
| CC1=C2C[C@H]3[C@@H](CC[C@@H]4C[C@H](NS(C)(=O)=O)CC[C@@]43C)[C@@H]2CC[C@@]2(C1)O[C@@H]1C[C@H](C)CN[C@H]1[C@H]2C [Saridegib] | 0 | 0 |
| CC[C@H](CO)Nc1nc(NCc2ccccc2)c2ncn(C(C)C)c2n1 [Seliciclib] | 0 | 0.2 |
| O=C(/C=C\n1cnc(-c2cc(C(F)(F)F)cc(C(F)(F)F)c2)n1)NNc1cnccn1 [Selinexor] | 9.6 | 9.5 |
| Cc1cc(F)c(C(=O)Nc2cccc(-c3nncn3C(C)C)n2)cc1-n1cnc(C2CC2)c1 [Selonsertib] | 0 | 0 |
| Cn1cnc2c(F)c(Nc3ccc(Br)cc3Cl)c(C(=O)NOCCO)cc21 [Selumetinib] | 0.7 | 0.7 |
| CN1CCN(C(=O)c2ccc3cc(CCNc4ncnc5ccc(C#N)cc45)ccc3c2)CC1 [Senexin B] | 2.4 | 1.3 |
| COCC[n+]1c2c(n(Cc3cnccn3)c1C)C(=O)c1ccccc1C2=O [Sepantronium bromide] | 32.9 | 33.2 |
| Nc1nc2cc(-c3ccc4ncc(C(=O)N5CCOCC5)n4c3)ccc2o1 [Serabelisib] | 7.8 | 9.8 |
| O=C(O)c1ccc2c(c1)nc(Nc1cccc(Cl)c1)c1ccncc12 [Silmitasertib] | 8.1 | 7.6 |
| CCC(C)(C)C(=O)O[C@H]1C[C@@H](C)C=C2C=C[C@H](C)[C@H](CC[C@@H]3C[C@@H](O)CC(=O)O3)[C@H]21 [Simvastatin] | 0 | 0.1 |
| CO[C@H]1C[C@@H]2CC[C@@H](C)[C@@](O)(O2)C(=O)C(=O)N2CCCC[C@H]2C(=O)O[C@H]([C@H](C)C[C@@H]2CC[C@@H](O)[C@H](OC)C2)CC(=O)[C@H](C)/C=C(\C)[C@@H](O)[C@@H](OC)C(=O)[C@H](C)C[C@H](C)/C=C/C=C/C=C/1C [Sirolimus] | 5.1 | 10.5 |

| SMILES | drug sensitivity score (MDA-MB-453 [1]) | drug sensitivity score (MDA-MB-453 [2]) |
| --- | --- | --- |
| COCCNCc1ccc(-c2cc3nccc(Oc4ccc(NC(=O)C5(C(=O)Nc6ccc(F)cc6)CC5)cc4F)c3s2)nc1 [Sitravatinib] | 0.6 | 0 |
| Cc1c(C(=O)Nc2ccc(N3C[C@@H](C)O[C@@H](C)C3)nc2)cccc1-c1ccc(OC(F)(F)F)cc1 [Sonidegib] | 5.8 | 1.4 |
| C=CCN(/C=C1/C(=O)O[C@H](COC)[C@@]2(C)C1=C(O)C(=O)C1=C2[C@H](OC(C)=O)C[C@]2(C)C(=O)CC[C@@H]12)CC=C [Sonolisib] | 0 | 0 |
| CNC(=O)c1cc(Oc2ccc(NC(=O)Nc3ccc(Cl)c(C(F)(F)F)c3)cc2)ccn1 [Sorafenib] | 0 | 0 |
| CN1CCN(c2nc(C3=C(c4c[nH]c5ccccc45)C(=O)NC3=O)c3ccccc3n2)CC1 [Sotrastaurin] | 2.5 | 1 |
| C=CC(=O)Nc1cccc(Nc2nc(Nc3ccc(OCCOC)cc3)ncc2F)c1 [Spebrutinib] | 0.7 | 0.9 |
| CC(C)n1cnc2c(NCCc3ccc(O)cc3)nc(-c3csc4ccccc34)nc21 [StemRegenin 1] | 0.3 | 0.4 |
| CCN(CC)CCNC(=O)c1c(C)[nH]c(/C=C2\C(=O)Nc3ccc(F)cc32)c1C [Sunitinib] | 0.2 | 0 |
| CC(C)(O)CC(=O)NCCn1ccc2ncnc(Nc3ccc(Oc4cccc(C(F)(F)F)c4)c(Cl)c3)c21 [TAK-285] | 5.4 | 6.4 |
| CCS(=O)(=O)c1cccc(-c2cc(C(=O)NC3CCN(C)CC3)c(C)c3[nH]c4ncc(C)cc4c23)c1 [TAK-901] | 2.7 | 3 |
| Cc1cccc(-c2[nH]c(CNc3ccccc3F)nc2-c2ccc3ncnn3c2)n1 [TEW-7197] | 5.2 | 1.8 |
| Nc1nc(N)c2nc(-c3cccc(O)c3)c(-c3cccc(O)c3)nc2n1 [TG100-115] | 5.1 | 5.9 |
| CC(C)Oc1ccc(-c2nn([C@@H](C)c3oc4ccc(F)cc4c(=O)c3-c3cccc(F)c3)c3ncnc(N)c23)cc1F [TGR-1202] | 0.7 | 0 |
| Cc1cc(C(C)Nc2ccccc2)c2nc(N3CCOCC3)cc(=O)n2c1 (stereo not given) [TGX-221] | 2.6 | 3.2 |
| Nc1nc(NC2CC2)cc(-c2cccc(Cl)c2Cl)n1 [TH588] | 2.4 | 1.7 |
| Clc1ccccc1C(c1ccccc1)(c1ccccc1)n1cccn1 [TRAM-34] | 1.6 | 0.6 |
| CC(=O)Nc1ccc(C(=O)Nc2ccccc2N)cc1 [Tacedinaline] | 1.3 | 0.4 |
| C=CC[C@@H]1/C=C(\C)C[C@H](C)C[C@H](OC)[C@H]2O[C@@](O)(C(=O)C(=O)N3CCCC[C@H]3C(=O)O[C@H](/C(C)=C/[C@@H]3CC[C@@H](O)[C@H](OC)C3)[C@H](C)[C@@H](O)CC1=O)[C@H](C)C[C@@H]2OC [Tacrolimus] | 2.2 | 0.8 |
| CN(C(=O)c1ccc(F)cc1C(F)(F)F)C1CCN(c2nnc(-c3ccnn3C)c3ccccc23)CC1 [Taladegib] | 1.6 | 1.1 |
| Cn1ncnc1[C@H]1c2n[nH]c(=O)c3cc(F)cc(c23)N[C@@H]1c1ccc(F)cc1 [Talazoparib] | 1.7 | 3.1 |

Source: the supplement of paper PMC7224384
